Data on two compounds can be found in patent US20260008784A1 (VASTHERA CO., LTD., priority 2022, published 2026).

A short description of data set [1]: in vitro. To be noted: human.
Method: (§2) For cytotoxicity analysis, human aortic endothelial cells (HAEC) and smooth muscle cells (HASMC) were seeded in a 96-well culture plate at density of 4000 cells/well in a final volume of 100 μL. Cells were cultured for 24 h and serum-starved for an additional 18 h. Test compounds were serially diluted with EBM-2 culture medium, added to the plate at 100 μL/well, and further incubated for 24 h. The number of viable cells was measured using the WST-1 cell viability assay kit (Roche Diagnostics, USA). Cell number was expressed as absorbance values at 450 nm after subtracting the turbidity value at 600 nm. The absorbance values from three replicate wells were averaged.
(§3) After treatment with ascending concentrations of each compound, the concentration of test compound corresponding to 50% cell viability (CC50) was measured.
The nature of data set [2]: in vitro. To be noted: human. The source holds these as a separate data set.
Method: as §2, §3
Data set [3] has as its system PDGF-induced tyrosine phosphorylation and PLC-γ1 phosphorylation in PASMC. In words: Immunoblot of PDGF-mediated signaling in PrxII knock-down PASMC. It counts as cell-based, human. To be noted: PASMCs, PDGF stimulation, FIG. 3. As for the experimental part:
(§1) Cells were quickly washed in ice-cold phosphate-buffered saline (PBS) and lysed in extraction buffer containing 20 mM Hepes (pH 7.0), 1% Triton X-100, 150 mM NaCl, 10% glycerol, 1 mM EDTA, 2 mM EGTA, and 1 mM DTT, 5 mM Na3VO4, 5 mM NaF, 1 mM AEBSF, aprotinin (5 μg/mL), and leupeptin (5 μg/mL). After cen-trifugation at 12,000×g, the clarified cell extracts were used for immunoblotting. For re-blotting, the immunoblots were retrieved in a solution of 67 mM Tris (pH 6.7), 2% SDS, and 100 mM 2-mercaptoethanol at 60° C. for 30 min to remove antibodies and rinsed three times with a Tris-buffered saline (TBS) solution containing 1% Triton X-100. The retrieved membranes were subjected to new immunoblotting.
In human aortic smooth muscle cell (HASMC) and human pulmonary artery smooth muscle cell (PASMC) in which PrxII was knocked out by transfecting the PrxII siRNA, the ability of test compounds to replace the cellular function of PrxII was evaluated. That is, the efficacy of the new compounds was verified in terms of signaling pathways induced by PDGF that regulates the growth and migration of vascular smooth muscle cells in the aorta and pulmonary artery. Activation of PDGF-induced signaling pathway was analyzed by an immunoblot method using an antibody that specifically recognizes phosphorylation of Tyr 857, which is a major phosphorylation site on PDGF receptor (PDGFRβ).

The subject of data set [4] is VEGF-induced tyrosine phosphorylation and ERK2 phosphorylation in PAEC. In words: Immunoblot of VEGF-mediated signaling in PrxII knock-down PAEC. Type of data set: cell-based, human. To be noted: PAECs, VEGF stimulation, FIG. 6. As for the experimental part: as §1
In human aortic endothelial cell (HAEC) and human pulmonary artery endothelial cell (PAEC) in which PrxII was knocked out by transfecting the PrxII siRNA, the ability of test compounds to replace the cellular function of PrxII was evaluated. That is, the efficacy of the new compounds was verified in terms of signaling pathways induced by VEGF that regulates the growth and migration of vascular endothelial cells in the aorta and pulmonary artery. Activation of VEGF-induced signaling pathway was analyzed by an immunoblot method using an antibody that specifically recognizes phosphorylation of Tyr 1175, which is a major phosphorylation site on VEGF receptor-2 (VEGFR2).
(In general: Immunoblotting shows a protein as a band on a membrane.)

Take `CN1C(=O)C2(C)SSCC1C(=O)N2C` (stereo not shown) [Compound 1, 1,6,8-trimethyl-2,3-dithia-6,8-diazabicyclo[3.2.2]nonane-7,9-dione]: the CC50 in “in vitro [1]” and in the data set “in vitro [2]” was more than 500 µM throughout.
Regarding `O=C1C2CSSC3(COCCN13)C(=O)N2Cc1ccccc1` (stereo not shown) [Compound 8, 12-benzyltetrahydro-5H,10H-4,10a-(epiminomethano)[1,4]oxazino[3,4-c][1,2,4]dithia zepine-5,11-dione], the “Effect on total tyrosine phosphorylation and phosphorylation of signaling proteins downstream of PDGFRβ” value in data set [3] is reported as “significantly inhibits the protein phosphorylation”. Further, the “Effect on total tyrosine phosphorylation and phosphorylation of signaling proteins downstream of VEGFR2” value in data set [4] is on record as “significantly inhibits the protein phosphorylation”.
